Reference: ChEMBL document CHEMBL4196200 (J Med Chem, 2018)
pEC50, pKi: −log10 of the molar value. Activity calls are given as the source filed them. No cut-off for these calls is given here.

What was measured:
Vasopressin V2 receptor [1] = target: T1, Vasopressin V2 receptor (Homo sapiens, UniProt P30518); assay: Displacement of DY647 from SNAP-tagged V2 receptor (unknown origin) expressed in HEK293 cells by TR-FRET assay; type: cell-based
Oxytocin receptor [2] = target: T2, Oxytocin receptor (Homo sapiens, UniProt P30559); assay: Agonist activity at human OTR expressed in HEK cells assessed as increase in intracellular calcium flux incubated for 45 mins by Indo1-AM dye based fluorescence assay; type: functional, cell-based
T2 sequence (P30559 whole entry): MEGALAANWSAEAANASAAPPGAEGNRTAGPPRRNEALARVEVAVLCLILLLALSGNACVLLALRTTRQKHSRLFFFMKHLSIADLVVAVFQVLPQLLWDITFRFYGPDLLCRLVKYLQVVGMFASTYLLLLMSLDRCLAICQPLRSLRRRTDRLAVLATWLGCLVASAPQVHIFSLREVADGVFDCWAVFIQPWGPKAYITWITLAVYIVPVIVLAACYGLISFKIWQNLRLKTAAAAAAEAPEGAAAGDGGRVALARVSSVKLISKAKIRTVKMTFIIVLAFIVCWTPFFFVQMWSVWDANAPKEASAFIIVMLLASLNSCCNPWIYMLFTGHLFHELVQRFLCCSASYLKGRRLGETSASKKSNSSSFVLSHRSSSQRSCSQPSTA

[3] = target: T3, Oxytocin receptor (Homo sapiens) (UniProt P30559); assay: Antagonist activity at human OTR expressed in HEK cells assessed as inhibition of OT-induced intracellular calcium flux at 1 uM incubated for 45 mins by Indo1-AM dye based fluorescence assay relative to OT; type: functional, cell-based
T3 sequence (whole entry): T2 sequence (P30559 whole entry)

Mus musculus [4] = assay: Improvement in social interaction in Oprm1-/- mouse model of autism spectrum disorders assessed as restoration of time spent in nose contacts at 10 mg/kg, ip pre-treated before open-field test for 10 mins; type: functional, organism-based
Mus musculus [5] = assay: Improvement in social interaction in Oprm1-/- mouse model of autism spectrum disorders assessed as restoration of mean duration of nose contacts at 10 mg/kg, ip pre-treated before open-field test for 10 mins; type: functional, organism-based
Mus musculus [6] = assay: (§1) Effect on social interaction in Oprm1+/+ mouse model of autism spectrum disorders assessed as number of nose contacts at 10 mg/kg, ip pre-treated before open-field test for 10 mins; type: ADME, organism-based; details: in vivo
Mus musculus [7] = assay: as §1; type: ADME, organism-based; details: in vivo; remark: listed apart in the source
Mus musculus [8] = assay: Effect on social interaction in Oprm1+/+ mouse model of autism spectrum disorders assessed as grooming episodes occurring after social contact at 10 mg/kg, ip pre-treated before open-field test for 10 mins; type: ADME, organism-based; details: in vivo
Mus musculus [9] = assay: Effect on social interaction in Oprm1+/+ mouse model of autism spectrum disorders assessed as increase in number of following episodes at 10 mg/kg, ip pre-treated before open-field test for 10 mins; type: ADME, organism-based; details: in vivo
Mus musculus [10] = assay: Improvement in social interaction in Oprm1-/- mouse model of autism spectrum disorders assessed as restoration of mean duration of nose contacts at 20 mg/kg, ip pre-treated before open-field test for 10 mins; type: functional, organism-based
Mus musculus [11] = assay: Improvement in social interaction in Oprm1-/- mouse model of autism spectrum disorders assessed as suppression of grooming episodes occurring after social contact at 20 mg/kg, ip pre-treated before open-field test for 10 mins; type: functional, organism-based
Mus musculus [12] = assay: Effect on social interaction in Oprm1+/+ mouse model of autism spectrum disorders assessed as time spent in nose contacts at 10 mg/kg, ip pre-treated before open-field test for 10 mins; type: ADME, organism-based; details: in vivo
Mus musculus [13] = assay: Effect on social interaction in Oprm1+/+ mouse model of autism spectrum disorders assessed as mean duration of nose contacts at 10 mg/kg, ip pre-treated before open-field test for 10 mins; type: ADME, organism-based; details: in vivo
Mus musculus [14] = assay: Effect on social interaction in Oprm1+/+ mouse model of autism spectrum disorders assessed as number of following episodes at 10 mg/kg, ip pre-treated before open-field test for 10 mins; type: ADME, organism-based; details: in vivo
[15] = AUC in brain of CD1 mouse at 10 mg/kg, ip measured over 15 mins to 240 mins by UHPLC-MS/MS method; type: ADME, organism-based; set-up: dose 10 mg/kg, time upper 4 hr, time lower 0.25 hr, route intraperitoneal; details: in vivo
Oxytocin receptor [16] = target: T2, Oxytocin receptor; assay: Agonist activity at human OTR receptor expressed in HEK293FT cells assessed as stimulation of calcium release by Aequorin based assay; type: functional, cell-based
[17] = target: T3, Oxytocin receptor (Homo sapiens); assay: Agonist activity at human OTR receptor expressed in HEK293FT cells assessed as stimulation of calcium release by Aequorin based assay relative to OT; type: functional, cell-based
[18] = target: T4, Oxytocin receptor (Mus musculus) (UniProt P97926); assay: Agonist activity at mouse OTR receptor expressed in HEK293FT cells assessed as stimulation of calcium release by Aequorin based assay relative to OT; type: functional, cell-based
T4 sequence (whole entry): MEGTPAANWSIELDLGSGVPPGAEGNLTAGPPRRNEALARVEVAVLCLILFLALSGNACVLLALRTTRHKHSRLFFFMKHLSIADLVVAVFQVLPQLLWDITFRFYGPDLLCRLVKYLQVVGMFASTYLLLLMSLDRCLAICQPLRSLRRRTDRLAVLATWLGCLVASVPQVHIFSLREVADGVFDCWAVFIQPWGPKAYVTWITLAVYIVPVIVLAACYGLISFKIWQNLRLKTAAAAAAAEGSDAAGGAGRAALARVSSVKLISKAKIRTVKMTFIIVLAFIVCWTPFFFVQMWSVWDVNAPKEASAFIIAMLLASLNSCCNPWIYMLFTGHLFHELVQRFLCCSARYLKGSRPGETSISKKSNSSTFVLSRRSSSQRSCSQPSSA

Vasopressin V1b receptor [19] = target: T5, Vasopressin V1b receptor (Homo sapiens, UniProt P47901); assay: Antagonist activity at human V1b receptor expressed in HEK293FT cells assessed as inhibition of AVP-induced calcium release by Aequorin based assay; type: functional, cell-based
T5 sequence (P47901 whole entry): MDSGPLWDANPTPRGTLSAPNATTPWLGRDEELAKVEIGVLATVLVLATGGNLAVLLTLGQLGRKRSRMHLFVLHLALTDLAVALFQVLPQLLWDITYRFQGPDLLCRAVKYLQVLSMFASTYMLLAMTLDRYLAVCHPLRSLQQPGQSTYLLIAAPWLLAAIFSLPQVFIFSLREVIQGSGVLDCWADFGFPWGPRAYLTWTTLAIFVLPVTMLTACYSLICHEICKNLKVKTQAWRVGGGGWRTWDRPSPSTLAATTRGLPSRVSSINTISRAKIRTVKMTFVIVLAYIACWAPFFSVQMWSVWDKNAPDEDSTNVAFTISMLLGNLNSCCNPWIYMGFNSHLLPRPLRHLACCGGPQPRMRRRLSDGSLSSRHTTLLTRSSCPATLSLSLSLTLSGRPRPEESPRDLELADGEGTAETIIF

Vasopressin V2 receptor [20] = target: T1, Vasopressin V2 receptor; assay: Agonist activity at human V2 receptor expressed in HEK293FT cells incubated for 30 mins by beta-arrestin recruitment assay; type: functional, cell-based
[21] = target: T3, Oxytocin receptor (Homo sapiens); assay: Agonist activity at human OTR receptor expressed in HEK293FT cells incubated for 30 mins by beta-arrestin recruitment assay relative to OT; type: functional, cell-based
Vasopressin V1a receptor [22] = target: T6, Vasopressin V1a receptor (Homo sapiens, UniProt P37288)
T6 sequence (P37288 whole entry): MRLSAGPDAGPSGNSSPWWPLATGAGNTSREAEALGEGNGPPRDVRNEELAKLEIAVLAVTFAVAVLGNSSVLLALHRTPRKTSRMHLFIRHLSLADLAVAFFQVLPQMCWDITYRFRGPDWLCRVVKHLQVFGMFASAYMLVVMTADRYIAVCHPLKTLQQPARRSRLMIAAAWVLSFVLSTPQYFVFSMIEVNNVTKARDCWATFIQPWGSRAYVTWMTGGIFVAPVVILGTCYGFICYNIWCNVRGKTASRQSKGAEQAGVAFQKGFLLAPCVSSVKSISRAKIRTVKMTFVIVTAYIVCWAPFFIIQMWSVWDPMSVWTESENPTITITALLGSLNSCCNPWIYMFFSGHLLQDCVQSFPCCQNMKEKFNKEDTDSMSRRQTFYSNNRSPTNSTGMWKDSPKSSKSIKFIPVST
Description: Agonist activity at human V1a receptor expressed in HEK293FT cells assessed as stimulation of calcium release by Aequorin based assay

Vasopressin V1a receptor [23] = target: T6, Vasopressin V1a receptor; remark: listed apart in the source
Description: Agonist activity at human V1a receptor expressed in HEK293FT cells incubated for 30 mins by beta-arrestin recruitment assay

Vasopressin V1b receptor [24] = target: T5, Vasopressin V1b receptor
Description: Agonist activity at human V1b receptor expressed in HEK293FT cells incubated for 30 mins by beta-arrestin recruitment assay

T1 sequence (P30518 whole entry): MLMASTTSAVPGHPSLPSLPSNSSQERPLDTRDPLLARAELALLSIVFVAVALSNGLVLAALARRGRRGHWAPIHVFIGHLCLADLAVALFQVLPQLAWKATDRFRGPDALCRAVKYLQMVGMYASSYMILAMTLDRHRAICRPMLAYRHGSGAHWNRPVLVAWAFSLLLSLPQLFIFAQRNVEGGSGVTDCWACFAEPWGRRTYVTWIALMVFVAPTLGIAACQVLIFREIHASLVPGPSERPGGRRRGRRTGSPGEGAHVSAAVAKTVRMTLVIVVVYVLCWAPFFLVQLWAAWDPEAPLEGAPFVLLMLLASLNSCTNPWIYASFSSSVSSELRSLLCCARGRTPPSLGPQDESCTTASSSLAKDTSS

pKi (Vasopressin V2 receptor [1]): 5.78
pEC50 (Oxytocin receptor [2]): 7.26
inhibition [3]: 5 to 10%
AUC [15]: 399 ng·min/g
pEC50 (Oxytocin receptor [16]): 7.60
Emax [17]: 96%
Emax [18]: 96%
IC50 (Vasopressin V1b receptor [19]): Not Active
pEC50 (Vasopressin V2 receptor [20]): 6.18
Emax [21]: 77%
EC50 (Vasopressin V1a receptor [22]): Not Active
IC50 (Vasopressin V1a receptor [23]): Not Active
EC50 (Vasopressin V1b receptor [24]): Not Active
SMILES: Cc1cc(C(=O)N2Cc3cnn(C)c3Nc3ccccc32)ccc1CNC(=O)N1CCC[C@H]1C(=S)N(C)C
Activity (Mus musculus [4]): Active
Activity (Mus musculus [5]): Active
Activity (Mus musculus [6]): Toxic
Activity (Mus musculus [7]): Non-Toxic
Activity (Mus musculus [8]): Non-Toxic
Activity (Mus musculus [9]): Toxic
Activity (Mus musculus [10]): inactive
Activity (Mus musculus [11]): inactive
Activity (Mus musculus [12]): Toxic
Activity (Mus musculus [13]): Toxic
Activity (Mus musculus [14]): Toxic
